Measured values as given in patent US20200360331A1, “COMPOSITIONS COMPRISING 15-HEPE AND/OR 15-HETrE AND METHODS OF TREATING OR PREVENTING CARDIOMETABOLIC DISEASE, METABOLIC SYNDROME, AND/OR RELATED DISEASES” (Afimmune Limited, priority 2019, published 2020).
“Also recorded” adds a separate entry of the source.

Legend:
[1] = tested on: EGFR (epidermal growth factor receptor); assay: Sucrose density gradient analysis in Mv1Lu cells, EGFR; type: cell-based, mink; settings: 100 μM, 0, 1, 4 and 24 hours
Method: (§1) Sucrose gradient ultracentrifugation and confocal microscopy were used to identify 15-HEPE induced microdomain translocation of TGF-β receptors by sucrose. Sucrose density gradient analysis of TGF-β receptors was conducted in the plasma membranes of Mv1Lu cells (mink lung epithelial cell) treated with 100 μM of 15-HEPE and an equal volume of DMSO (dimethyl sulfoxide) at 37° C. for 0, 1, 4, and 24 hours, and the cell lysates from these treated cells were subjected to sucrose density gradient ultracentrifugation. The sucrose gradient fractions were then analyzed by Western blot analysis using anti-TβR-I (type I TGF-β receptor), anti-TβR-II (type II TGF-β receptor), anti-TβR-III (type III TGF-β receptor, betaglycan), anti-EGFR (epidermal growth factor receptor), and anti-caveolin-1 antibodies. The lipid raft/caveolae, and non-lipid raft microdomain localization of TβR-I, TβR-II, TβR-III, EGFR and caveolin-1 in the plasma membrane of untreated cells or cells treated with 15-HEPE were assessed to determine the effects of 15-HEPE on the membrane microdomain localization of the TGF-β receptors. […]

NAFLD patients = assay: Phase IIa NAFLD study: OWL Liver Care diagnostic test for NASH; type: in vivo, human
From the text: The study was planned to include 96 evaluable patients with 32 patients randomized per treatment group.
OWL Liver Care is a test that was developed based on the plasma lipidomics in biopsy-confirmed NASH patients and provides high predictive values. OWL Liver Care has an area under the curve (AUC) of 0.88 for distinguishing NAFLD and normal liver patients and an AUC of 0.79 for distinguishing NAFLD without steatohepatitis and NASH patients.

Alpha-SMA = assay: BDL study: quantitative RT-PCR of liver, Alpha-SMA; type: in vivo, C57BL/6J mice; settings: BDL mice liver
Method: (§2) Quantitative RT-PCR: Total ribonucleic acid (RNA) was extracted from liver samples using RNAiso (Takara Bio, Japan) according to the manufacturer's instructions. One μg of RNA was reverse-transcribed using a reaction mixture containing 4.4 mM magnesium chloride (MgCl2) (F. Hoffmann-La Roche, Switzerland), 40 U RNase inhibitor (Toyobo, Japan), 0.5 mM dNTP (Promega, USA), 6.28 μM random hexamer (Promega), 5× first strand buffer (Promega), 10 mM dithiothreitol (Invitrogen, USA) and 200 U MMLV-RT (Invitrogen) in a final volume of 20 μL. The reaction was carried out for 1 hour at 37° C., followed by 5 minutes at 99° C. Real-time PCR was performed using real-time PCR DICE and TB Green™ Premix Ex Taq™ II (Takara Bio). To calculate the relative mRNA expression level, the expression of each gene (α-SMA, TIMP-1, TGF-β and Collagen Type 1) was normalized to that of reference gene 36B4 (gene symbol: Rplp0). Information regarding the PCR-primer sets and the plate layout are described in Tables 8 and 9.

caveolin-1 = assay: Sucrose density gradient analysis in Mv1Lu cells, caveolin-1; type: cell-based, mink; settings: 100 μM, 0, 1, 4 and 24 hours
Method: as §1

[2] = tested on: TGF-β-stimulated intracellular signaling (SMAD2/3 phosphorylation); assay: TGF-β-stimulated SMAD2/3 phosphorylation in LX2 liver stellate cells; type: cell-based, human; settings: 0 μM to 100 μM for 24 hours, then 30 min TGF-β stimulation, listed as 15-HEPE
TIMP-1 = assay: UUO study: quantitative RT-PCR of kidney, TIMP-1; type: in vivo, C57BL/6 mice; settings: UUO mice kidney
Method: as §2, with “from kidney” for “from liver”, “[…] (mM) of” for “4.4 mM”, “relative […] (mRNA)” for “relative mRNA”, “gene (e.g., α-SMA,” for “gene (α-SMA,”, “Tables 1” for “Tables 8”, “and 2.” for “and 9.”

[3] = tested on: TβR-II (type II TGF-β receptor); assay: Sucrose density gradient analysis in Mv1Lu cells, TβR-II; type: cell-based, mink
Method: Sucrose gradient ultracentrifugation and confocal microscopy were used to identify 15-HEPE induced microdomain translocation of TGF-β receptors by sucrose. Sucrose density gradient analysis of TGF-β receptors was conducted in the plasma membranes of Mv1Lu cells (mink lung epithelial cell) treated with 100 μM of 15-HEPE and an equal volume of DMSO (dimethyl sulfoxide) at 37° C. for 0, 1, 4, and 24 hours, and the cell lysates from these treated cells were subjected to sucrose density gradient ultracentrifugation. The sucrose gradient fractions were then analyzed by Western blot analysis using anti-TβR-I (type I TGF-β receptor), anti-TβR-II (type II TGF-β receptor), anti-TβR-III (type III TGF-β receptor, betaglycan), anti-EGFR (epidermal growth factor receptor), and anti-caveolin-1 antibodies. The lipid raft/caveolae, and non-lipid raft microdomain localization of TβR-I, TβR-II, TβR-III, EGFR and caveolin-1 in the plasma membrane of untreated cells or cells treated with 15-HEPE were assessed to determine the effects of 15-HEPE on the membrane microdomain localization of the TGF-β receptors.
A 15-HEPE sucrose density gradient analysis of TGF-β receptors was conducted in the plasma membranes of mink lung epithelial cell (Mv1 Lu) cells treated with 100 μM of 15-HEPE and an equal volume of dimethyl sulfoxide (DMSO) at 37° C. for 0, 1, 4, and 24 hours, and the cell lysates from these treated cells were subjected to sucrose density gradient ultracentrifugation. The sucrose gradient fractions were then analyzed by Western blot analysis using anti-TβR-I (type I TGF-β receptor—FIG. 18C), anti-TβR-II (type II TGF-β receptor—FIG. 18D), anti-TβR-III (type III TGF-β receptor, betaglycan—FIG. 18E), anti-EGFR (epidermal growth factor receptor—FIG. 18F), and anti-caveolin-1 antibodies (FIG. 18G). Fractions 4 to 5 contained lipid rafts/caveolae whereas fractions 7-10 were non-lipid raft fractions. […] Stars (★) indicate 15-HEPE increased abundance of TβR-I (24 hours) in the fraction in comparison with that of the control and shorter treatment durations (FIG. 18C). […] The triangles (▾) indicate translocation and decreased abundance of TβR-II in the fraction in comparison with control cells (FIG. 18D).

TGF-β = assay: UUO study: quantitative RT-PCR of kidney, TGF-β; type: in vivo, C57BL/6 mice; settings: UUO mice kidney
Method: as §2, with “from kidney” for “from liver”, “[…] (mM) of” for “4.4 mM”, “relative […] (mRNA)” for “relative mRNA”, “gene (e.g., α-SMA,” for “gene (α-SMA,”, “Tables 1” for “Tables 8”, “and 2.” for “and 9.”

[4] = 1 g per day, baseline diagnosis NASH
[5] = 1 g per day, baseline diagnosis No NAFLD
[6] = 1 g per day, baseline diagnosis Steatosis
[7] = 2 g per day, baseline diagnosis NASH
[8] = 2 g per day, baseline diagnosis No NAFLD
[9] = 2 g per day, baseline diagnosis Steatosis
[10] = relative mRNA normalized to 36B4, 50 mg/kg PO QD Day 0-13
[11] = relative mRNA normalized to 36B4, 500 mg/kg PO QD Day 0-13

Compound: CC/C=C\CC(O)/C=C/C=C\C/C=C\C/C=C\CCCC(=O)O (centres unmarked) [DS102, 15-hydroxy-eicosa-5Z,8Z,11Z,13E,17Z-pentaenoic acid]
- localization and abundance of EGFR [1]: did not change the localization and abundance
- OWL test change in diagnosis (Week 16 vs. baseline): Improvement, patients (NAFLD patients; [4]): 5
- OWL test change in diagnosis (Week 16 vs. baseline): Stable, patients (NAFLD patients; [4]): 14
- OWL test change in diagnosis (Week 16 vs. baseline): Stable, patients (NAFLD patients; [5]): 3
- OWL test change in diagnosis (Week 16 vs. baseline): Worsening, patients (NAFLD patients; [5]): 1
- OWL test change in diagnosis (Week 16 vs. baseline): Stable, patients (NAFLD patients; [6]): 2
- OWL test change in diagnosis (Week 16 vs. baseline): Worsening, patients (NAFLD patients; [6]): 3
- OWL test change in diagnosis (Week 16 vs. baseline): Improvement, patients (NAFLD patients; [7]): 5
- OWL test change in diagnosis (Week 16 vs. baseline): Stable, patients (NAFLD patients; [7]): 7
- OWL test change in diagnosis (Week 16 vs. baseline): Stable, patients (NAFLD patients; [8]): 2*, **
- OWL test change in diagnosis (Week 16 vs. baseline): Worsening, patients (NAFLD patients; [8]): 1
- OWL test change in diagnosis (Week 16 vs. baseline): Improvement, patients (NAFLD patients; [9]): 1
- OWL test change in diagnosis (Week 16 vs. baseline): Stable, patients (NAFLD patients; [9]): 9
- OWL test change in diagnosis (Week 16 vs. baseline): Worsening, patients (NAFLD patients; [9]): 4
- OWL liver care diagnosed NASH (NAFLD patients; Week 16, dose dependent, compared to placebo): significantly improved and normalized
- α-SMA mRNA expression level compared with the Vehicle group (Alpha-SMA; 500 mg/kg): tended to decrease; also recorded: trend approaching significance
- α-SMA mRNA expression level vs Vehicle group (Alpha-SMA; DS102 treatment groups): no significant differences
- Alpha-SMA gene expression (Alpha-SMA; [10]): 3.21 ± 1.67
- Alpha-SMA gene expression (Alpha-SMA; relative mRNA normalized to 36B4, 250 mg/kg PO QD Day 0-13): 2.66 ± 1.33
- Alpha-SMA gene expression (Alpha-SMA; [11]): 1.42 ± 0.75
- localization and abundance of caveolin-1 (caveolin-1): did not change the localization and abundance
- TGF-β-stimulated intracellular signaling (SMAD2/3 phosphorylation) [2]: inhibits TGF-β-stimulated intracellular signaling; also recorded: inhibited TGF-β induced intracellular signaling (SMAD2/3)
- TIMP-1 gene expression (TIMP-1; [10]): 138.30 ± 30.39
- TIMP-1 gene expression (TIMP-1; [11]): 124.80 ± 28.60
- TβR-II translocation ([3]; Mv1Lu cells, 100 μM, 1 to 4 hours): induced TβR-II translocation
- TβR-II degradation ([3]; Mv1Lu cells, 100 μM, 24 hours): induce degradation
- translocation and degradation of type II TGF-β receptors ([3]; summary, free acid or ethyl ester form): induced translocation and degradation of type II TGF-β receptors
- TGF-β gene expression (TGF-β; [10]): 4.31 ± 0.69
- TGF-β gene expression (TGF-β; [11]): 5.37 ± 0.76
